EC50 and IC50 data for 20 compounds are collected here from US12410160B2 (Gilead Sciences, Inc., priority 2021, dated 2025).

The subject of test [1] is HepG2 cells. As to the kind of experiment: F1P Cell-Based Assay (EC50), 13C6-fructose-1-phosphate in HepG2 cells (cell culture medium or 50% human plasma). The method, then: F1P Cell-Based Assay (EC50)
Compounds were serially diluted (1:3) in DMSO. The LabCyte ECHO Acoustic dispenser system was used to pre-spot the assay plates (Greiner, Catalog #781091) with 400 nL (200-fold final dilution in 80 μL assay volume) of compound. 25,000 cells/well HepG2 cells (ATCC Catalog #HB-8065) were plated in a 40 μL volume/well in DMEM medium with 4.5 g/L glucose, 1× Penicillin-Streptomycin-Glutamine, and 10% FBS, using a BioTEK dispenser in a biological hood and incubated overnight at 37° C., 5% CO2, 90% humidity. 40 μL/well serum free assay medium (for F1P assay in cell culture medium), or 40 μL/well 100% human plasma (for F1P assay in 50% human plasma) were then added to the plates on the following day, and incubated for 1 hour at 37° C., 5% CO2, 90% humidity. ^13C6-labelled fructose (Sigma, Catalog #587621) in sterile PBS was added to the plates at a final concentration of 5 mM. The plates were incubated for 2 hours at 37° C., 5% CO2, 90% humidity. The assay was quenched by washing the cells with sterile PBS and adding 60 μL/well of 80% (v/v) methanol, 2 mM ammonium acetate and 2.5 μM Crotonyl-CoA, using a BioTEK washer-dispenser system. The plates were then sealed and stored in the −80° C. freezer until ready for RapidFire readout. ^13C6-fructose-1-phosphate in individual wells was quantified using the Agilent RapidFire High-Throughput MS system in negative mode using a […]. Mobile Phase 1 consisted of 20 mM ammonium acetate with 0.05% acetic acid in 100% methanol. Mobile phase 2 consisted of 5 mM octylamine in water (pH adjusted to 5 using acetic acid). F1P signals in individual wells were normalized by crotonyl CoA internal control.

For test [2], the target named is human KHK-C (Homo sapiens (Human), UniProt P50053). Nature of the test: KHK Biochemical Assay (IC50), ADP-Glo, KHK-C. Conditions: average of at least two separate assays. A digest of the protocol:
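ADP-Glo luminescence measured ADP made over a 4 h room-temperature reaction of ATP plus fructose, started after 30 min compound–enzyme pre-incubation. Buffer: 50 mM Hepes pH 7.4, 140 mM KCl, 5 mM MgCl2, 0.01% Triton-X. Enzyme was His-tagged, BL21 (DE3)-expressed, Ni-NTA-purified; compounds in 1:3 DMSO dilution series.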

Where [3] appears, read: Homo sapiens, HepG2, HepG2 cells, 50% human plasma, read-out: F1P 50% HP EC50.
Where [4] appears, read: Homo sapiens, HepG2, read-out: F1P 10% FBS EC50, HepG2 cells, cell culture medium (10% FBS).
[5] abbreviates: HepG2 cells, 50% human plasma, read-out: F1P 50% HP EC50.
Setting [6] is: read-out: F1P 10% FBS EC50, HepG2 cells, cell culture medium (10% FBS).

Read-outs that look alike come from different tables or passages of the source.

Sequence of human KHK-C (P50053 whole entry): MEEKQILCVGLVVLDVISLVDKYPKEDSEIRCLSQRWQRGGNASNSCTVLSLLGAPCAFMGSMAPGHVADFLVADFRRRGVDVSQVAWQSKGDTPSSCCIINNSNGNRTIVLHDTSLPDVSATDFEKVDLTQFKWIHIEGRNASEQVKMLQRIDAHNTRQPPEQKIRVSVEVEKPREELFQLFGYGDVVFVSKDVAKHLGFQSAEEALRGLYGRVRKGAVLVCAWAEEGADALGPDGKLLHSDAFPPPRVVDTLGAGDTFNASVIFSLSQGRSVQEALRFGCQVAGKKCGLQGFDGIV

`C[C@H]1[C@H](O)CN1c1nc(-c2ccc3c(c2)[C@@H](NS(C)(=O)=O)CC3)c2c(n1)C(F)(F)CC2` (single isomer, unassigned) [Example 622]: the EC50 in test [1] (setting [3]) turned out to be 46.1 nM; in test [1] (setting [4]), 8.8 nM. Also, in test [2], the half-inhibitory concentration (IC50) stood at 1.5 nM.
The matching figures for `C[C@H]1[C@H](O)CN1c1nc(-c2ccc3c(c2)[C@H](NS(C)(=O)=O)CC3)c2c(n1)C(F)(F)CC2` (single isomer, unassigned) [Example 623]: 34.8 nM, 6.8 nM and 1.3 nM.
For `C[C@H]1[C@H](O)CN1c1nc(-c2cc(F)c3c(c2)OCC3NS(C)(=O)=O)c2c(n1)C(F)(F)CC2` (stereo partly drawn) [Example 817, N-(6-(7,7-difluoro-2-((2S,3R)-3-hydroxy-2-methylazetidin-1-yl)-6,7-dihydro-5H-cyclopenta[d]pyrimidin-4-yl)-4-fluoro-2,3-dihydrobenzofuran-3-yl)methanesulfonamide], the results for the 50% effective concentration (EC50) in test [1] (setting [3]) and in test [1] (setting [4]) were 67.1 nM and 39.7 nM, respectively. This compound also had an IC50 in test [2] (ADP-Glo) of 5.9 nM.
As to `C[C@H]1[C@H](O)CN1c1nc(-c2ccc3c(c2)CCNC3)c2c(n1)C(F)(F)CC2` [Example 657, (2S,3R)-1-[7,7-difluoro-4-(1,2,3,4-tetrahydroisoquinolin-6-yl)-5,6-dihydrocyclopenta[d]pyrimidin-2-yl]-2-methyl-azetidin-3-ol], the EC50 in test [1] (Homo sapiens, HepG2, read-out: F1P 10% FBS EC50) worked out at 4.1 nM; in test [1] (Homo sapiens, HepG2, read-out: F1P 50% HP EC50) it was 4.2 nM. This compound showed an IC50 in test [2] of 2.7 nM.
`C[C@H]1[C@H](O)CN1c1nc(-c2ccc(C3(N)COC3)c(C(F)(F)F)c2)c2c(n1)C(F)(F)CC2` [Example 514, (2S,3R)-1-(4-(4-(3-aminooxetan-3-yl)-3-(trifluoromethyl)phenyl)-7,7-difluoro-6,7-dihydro-5H-cyclopenta[d]pyrimidin-2-yl)-2-methylazetidin-3-ol]: the EC50 in test [1] (setting [3]) worked out at 72.3 nM; in test [1] (setting [4]) it was 41.6 nM. The same compound yielded an IC50 in test [2] of 10.6 nM.
On the same counts, the results for `C[C@H]1[C@H](F)CN1c1nc(-c2ccc(C3(N)CS(=O)(=O)C3)cc2)c2c(n1)C(F)(F)CC2` [Example 772] are 33.8 nM, 10.5 nM and 1 nM.
The matching figures for `C[C@H]1[C@H](O)CN1c1nc(-c2ccc(F)c(S(C)(=N)=O)c2)c2c(n1)C(F)(F)CC2` (stereo partly drawn) [Example 723, (5-(7,7-difluoro-2-((2S,3R)-3-hydroxy-2-methylazetidin-1-yl)-6,7-dihydro-5H-cyclopenta[d]pyrimidin-4-yl)-2-fluorophenyl)(imino)(methyl)-λ^6-sulfanone]: 41.3 nM, 44.3 nM and 19 nM.
The matching figures for `C[C@H]1[C@H](O)CN1c1nc(-c2ccc([C@@]3(N)CCOC3)cc2)c2c(n1)C(F)(F)CC2` (single isomer, unassigned) [Example 517]: 6.3 nM, 4.8 nM and 1 nM.
As to `C[C@H]1[C@H](O)CN1c1nc(-c2cccc([C@@H]3CCS(=O)(=O)N3)c2)c2c(n1)C(F)(F)CC2` (single isomer, unassigned) [Example 618], the half-maximal effective concentration (EC50) in test [1] (setting [5]) stood at 24 nM; in test [1] (setting [6]), 18.1 nM. Further, half-maximal inhibition in test [2] (IC50) was put at 11.2 nM.
In the case of `C[C@H]1[C@H](O)CN1c1nc(-c2ccc3c(c2)[C@H](NS(C)(=O)=O)CO3)c2c(n1)C(F)(F)CC2` (single isomer, unassigned) [Example 615], the half-maximal effective concentration (EC50) in test [1] (setting [5]) turned out to be 30.7 nM; in test [1] (setting [6]), 16.1 nM. This compound also returned an IC50 in test [2] of 3.5 nM.
Consider `CS(=O)(=O)N[C@H]1COc2cc(-c3nc(N4CC(F)(F)C4CO)nc4c3CCC4(F)F)ccc21` (stereo partly drawn) [Example 792, N-((3R)-6-(2-(3,3-difluoro-2-(hydroxymethyl)azetidin-1-yl)-7,7-difluoro-6,7-dihydro-5H-cyclopenta[d]pyrimidin-4-yl)-2,3-dihydrobenzofuran-3-yl)methanesulfonamide], for which the EC50 in test [1] (setting [3]) worked out at 140 nM; in test [1] (setting [4]), 57.7 nM. Besides, the IC50 in test [2] was determined as 2.2 nM.
On the same counts, the results for `C[C@H]1[C@@H](F)CN1c1nc(-c2ccc3c(c2)OC[C@@H]3NS(C)(=O)=O)c2c(n1)C(F)(F)CC2` [Example 524, N—((R)-6-(7,7-difluoro-2-((2S,3S)-3-fluoro-2-methylazetidin-1-yl)-6,7-dihydro-5H-cyclopenta[d]pyrimidin-4-yl)-2,3-dihydrobenzofuran-3-yl)methanesulfonamide] are 60.1 nM, 8.2 nM and 1 nM.
On the same counts, the results for `C[C@H]1[C@H](F)CN1c1nc(-c2ccc3c(c2)S(=O)(=O)CC3NS(C)(=O)=O)c2c(n1)C(F)(F)CC2` (stereo partly drawn) [Example 674, N-[6-[7,7-difluoro-2-[(2S,3R)-3-fluoro-2-methyl-azetidin-1-yl]-5,6-dihydrocyclopenta[d]pyrimidin-4-yl]-1,1-dioxo-2,3-dihydrobenzothiophen-3-yl]methanesulfonamide] are 232 nM, 3 nM and 0.2 nM.
In the case of `C[C@H]1CCN1c1nc(-c2ccc3c(c2)CNC3)c2c(n1)C(F)(F)CC2` [Example 765, 7,7-difluoro-4-isoindolin-5-yl-2-[(2S)-2-methylazetidin-1-yl]-5,6-dihydrocyclopenta[d]pyrimidine], the EC50 was 53.2 nM in test [1] (setting [3]) and 15.5 nM in test [1] (setting [4]). For the same compound, the IC50 in test [2] is 7.7 nM.
With `C[C@H]1[C@H](O)CN1c1nc(-c2cccc(N=S3(=O)CCCC3)c2)c2c(n1)C(F)(F)CC2` [Example 671, (2S,3R)-1-[7,7-difluoro-4-[3-[(1-oxothiolan-1-ylidene)amino]phenyl]-5,6-dihydroeyelopenta[d]pyrimidin-2-yl]-2-methyl-azetidin-3-ol], the concentration giving a half-maximal response (EC50) in test [1] (setting [3]) is 269 nM; in test [1] (setting [4]), 35.1 nM. The concentration for half-maximal inhibition (IC50) in test [2] was found to be 32.9 nM.
Regarding `CC(=O)NC1COc2cc(-c3nc(N4C[C@@H](O)[C@@H]4C)nc4c3CCC4(F)F)cc(F)c21` (stereo partly drawn) [Example 809], the EC50 is 179 nM in test [1] (setting [3]) and 110 nM in test [1] (setting [4]). Also, it took 24.8 nM to reach half-maximal inhibition in test [2] (ADP-Glo) (IC50).
On the same counts, the results for `C[C@H]1[C@H](O)CN1c1nc(-c2cc(F)c3c(c2)OC[C@H]3NS(C)(=O)=O)c2c(n1)C(F)(F)CC2` (single isomer, unassigned) [Example 812] are 40.3 nM, 11.2 nM and 0.7 nM.
`C[C@H]1[C@H](O)CN1c1nc(-c2ccc3c(c2)OC[C@@H]3n2ccnn2)c2c(n1)C(F)(F)CC2` [Example 670]: the results for the EC50 in test [1] (setting [3]) and in test [1] (setting [4]) were 31.4 nM and 25.3 nM, respectively. Moreover, in test [2], half-maximal inhibition (IC50) required 24.3 nM.
The matching figures for `CC(=O)NC1COc2cc(-c3nc(N4CC[C@@H]4C)nc4c3CCC4(F)F)ccc21` (stereo partly drawn) [Example 767, N-[6-[7,7-difluoro-2-[(2S)-2-methylazetidin-1-yl]-5,6-dihydrocyclopenta[d]pyrimidin-4-yl]-2,3-dihydrobenzofuran-3-yl]acetamide]: 97.9 nM, 20.9 nM and 4.8 nM.
Consider `C[C@H]1[C@H](F)CN1c1nc(-c2ccc3c(c2)OC[C@@H]3NS(C)(=O)=O)c2c(n1)C(F)(F)CC2` [Example 523, N—((R)-6-(7,7-difluoro-2-((2S,3R)-3-fluoro-2-methylazetidin-1-yl)-6,7-dihydro-5H-cyclopenta[d]pyrimidin-4-yl)-2,3-dihydrobenzofuran-3-yl)methanesulfonamide], for which the EC50 in test [1] (setting [3]) came out at 51.3 nM; in test [1] (setting [4]) it was 5.1 nM. The compound further yielded an IC50 in test [2] of 0.7 nM.
